These results are taken from paper PMC6804079, “Investigation of 5’-Norcarbocyclic Nucleoside Analogues as Antiprotozoal and Antibacterial Agents” (Molecules, 2019).

In one data set the test system is Tbb-5FURes. Description: microbe, parasite or virus in culture. Type of data set: cell-based, Trypanosoma brucei brucei. As to conditions: for EC50: Trypanosoma brucei, read-out: T. Brucei, EC50, Tbb-5FURes.
For data set [1], the system named is M. tuberculosis ATCC 25,177 (H37Ra). Description: microbe, parasite or virus in culture. In kind it is cell-based, Mycobacterium tuberculosis. As to conditions: Mycobacterium tuberculosis, read-out: M. Tuberculosis 25,177 MIC.
The next data set has as its system M. tuberculosis MS-115. Nature of the data set: microbe, parasite or virus in culture. In kind it is cell-based. The conditions noted are these: Mycobacterium tuberculosis, MS115, read-out: M. Tuberculosis MS-115 MIC.
Another data set concerns M. tuberculosis H37Rv. Description: microbe, parasite or virus in culture. In kind it is cell-based. The conditions noted are these: Mycobacterium tuberculosis, control drugs at critical concentrations.
Data set [2] relates to L. mexicana 5FURes (Lmex5FURes). Description: microbe, parasite or virus in culture. The conditions noted are these: Leishmania mexicana, read-out: L. Mexicana 5FUR, EC50.
Procedure: (§1) Promastigotes of Leishmania mexicana strain MNY/BZ/62/M379 was cultured in a minimal essential medium, HO-MEMO-MEME, supplemented with 10% FBS and 1% of a penicillin/streptomycin solution (Gibco) as described previously [39] at 25 °C. The L. mexicana 5FURes strain was the same strain but adapted in vitro to high levels of 5FU exactly as described for T. brucei [12].
(§2) The resazurin assay for L. mexicana promastigotes was performed exactly as for T. b. brucei, except that incubation times of 72 and 48 h were used before and after the addition of resazurin, respectively, due to the slower metabolism of the dye by Leishmania promastigotes [42].
The next data set relates to U-937 cells. Description: U-937 cytotoxicity (XTT). In kind it is cell-based. The conditions noted are these: 6 days incubation. As to the method:
The U-937 cells used in the cytotoxicity evaluation were obtained from the AIDS Research and Reference Program. The cells were cultured as indicated by the supplier in RPMI-1640 supplemented with 10% heat inactivated FBS, 1% penicillin/streptomycin solution, and 1% L-glutamine.
U-937 cells plated at 2.5 × 10^3 cells/well in a volume of 100 µL were incubated with serially diluted test compounds in a volume of 100 µL for 6 days at 37 °C/5% CO2. Following the incubation, the cells were stained by adding 50 μL tetrazolium dye XTT (Sigma) solution at 5 mg/mL to determine cellular viability and read at 460/650 nm on a spectrophotometer. Toxicity values were calculated using linear regression analysis.

Data set [3] concerns Trypanosoma and Leishmania. Further details: method as in PMID 28571825. As to conditions: equivalent activity against both pathogens; cited from earlier work.
In the next data set the test system is T. brucei 2T1 PYR6-5 −/−. Nature of the data set: microbe, parasite or virus in culture. Type of data set: cell-based, Trypanosoma brucei brucei. The conditions noted are these: for EC50: Trypanosoma brucei, read-out: T. Brucei, EC50, 2T1 PYR6-5 −/−.
The next data set concerns T. brucei B48. Description: microbe, parasite or virus in culture. In kind it is cell-based, Trypanosoma brucei brucei. The conditions noted are these: Trypanosoma brucei, read-out: T. Brucei, EC50, B48.
Data set [4] deals with T. b. brucei strain Lister 427 (s427-WT). Description: resazurin EC50 assay, T. b. brucei wild-type bloodstream forms. In kind it is cell-based, Trypanosoma brucei brucei. The conditions noted are these: Trypanosoma brucei, 72 h, 48 h + 24 h resazurin, average and SEM, at least three determinations, NE = no effect on cell viability at 100 µM.
Data set [5] concerns L. mexicana WT promastigotes (strain MNY/BZ/62/M379). Nature of the data set: resazurin EC50 assay, L. mexicana promastigotes wild-type. As to conditions: 72 h + 48 h resazurin, average and SEM, NE = no effect on cell viability at 100 µM.
Procedure: as §1, §2
For a further data set, the system named is T. vaginalis strain G3. Description: resorufin-based EC50 assay, T. vaginalis. The conditions noted are these: Trichomonas vaginalis, read-out: Trichomonas Vaginalis, EC50.
The test system of data set [6] is L. mexicana 5FURes (Lmex5FURes). As to conditions: differences in EC50 between wild-type and 5FU-resistant L. mexicana.
Procedure: as §1, §2

Values after ≈ are worked out from the molar mass of the structure shown. Values joined by “and” are separate entries in the source; they are usually repeats but may differ in a detail not shown here. Equal entries are not always repeated.

Procedure for T. vaginalis strain G3: The standard metronidazole-susceptible T. vaginalis strain G3was originally obtained from Jeremy Mottram (University of York, UK) and cultured in a modification of Diamond′s medium supplemented with 10% horse serum with a composition as described [40] at 37 °C under anaerobic conditions. Cultures were passaged daily.
Drugs were tested on T. vaginalis using a resorufin-based assay that we developed [40, 43]. The assay is based on the principle that live T. vaginalis trophozoites are, almost uniquely, able to reduce fluorescent, pink resorufin to non-fluorescent, colorless dihydro-resorufin. This conversion was measured as a dose-dependent increase in fluorescence (with dead cells unable to metabolize the fluorophore; λexc 544 nm, λem 599 nm), resulting in a sigmoid curve with variable slope that yielded EC50 values (Prism 6.0). Plates contained 11 doubling dilutions (1 row) and no-drug control for each compound starting at 100 µM under anaerobic conditions as described [40, 43]. Fluorescence was determined in a PheraStar plate reader (BMG Labtech).

`CCCCCCCCCCCCC#Cc1cn([C@H]2C=C[C@@H](O)C2)c(=O)n([C@H]2C=C[C@@H](O)C2)c1=O` [Compound 1, 1-[4′-Hydroxy-2′-cyclopenten-1′-yl]-3-(4′′-hydroxy-2′′-cyclopent-en-1′′-yl)-5-tetradecynyluracil]: the EC50 with Tbb-5FURes is 7.5 ± 0.1 µM; in [2], 11.4 ± 0.3 µM; in [3], 8 to 11.9 µM; in the data set with T. brucei 2T1 PYR6-5 −/− it was 9.2 ± 0.4 µM; in the data set with T. brucei B48, 9 ± 0.1 µM; in data set [4], 8 ± 0.1 µM. In addition, the MIC in data set [1] was 250 µM and 117 µg/mL; with M. tuberculosis MS-115, more than 50 µg/mL; in the data set with M. tuberculosis H37Rv it was 50 µg/mL (≈ 107 µM). Further, the “U-937 Cells TC50” value in the data set on U-937 cells stood at 66.3 µM.

On to `O=c1c(C#CCO)cn([C@H]2C=C[C@@H](O)C2)c(=O)n1[C@H]1C=C[C@@H](O)C1` [Compound 9, 1-[4′-Hydroxy-2′-cyclopenten-1′-yl]-3-(4′′-hydroxy-2′′-cyclopent-en-1′′-yl)-5-(hydroxypropynyl)uracil], for which the EC50 in the data set with Tbb-5FURes was 74.9 ± 3.5 µM; in data set [2], more than 100 µM; with T. vaginalis strain G3, 84.8 ± 0.004 µM; in the data set on T. brucei 2T1 PYR6-5 −/− it was 59.9 ± 1 µM; in the data set with T. brucei B48 it was 76.8 ± 4.4 µM; in data set [4] it was 66.8 ± 6.6 µM. Further, in data set [5], the “L. Mexicana WT, EC50” value is “did not show any antileishmanial activity at all”. Besides, in [1], the MIC is 1000 µM and 330 µg/mL. Moreover, the “U-937 Cells TC50” value in the data set on U-937 cells was more than 100 µM.

`O=c1[nH]cc(F)c(=O)[nH]1` [5-Fluorouracil, reference compound]: the EC50 was 2500 ± 76 µM in the data set on Tbb-5FURes; 3520 ± 440 µM in data set [2]; 2.33 ± 0.35 µM in the data set on T. brucei 2T1 PYR6-5 −/−; 101 ± 7 µM in the data set with T. brucei B48; 87 ± 6.4 µM in [4]. The “fold difference in EC50, 5FURes versus wild-type” value with Tbb-5FURes (resistance to 5FU, reduction in trypanocidal activity for test compounds) came out at 28.7 fold. In addition, in [6], the “fold resistance, Lmex5FURes versus wild-type” value is more than 400 fold. Also, in the data set on T. brucei 2T1 PYR6-5 −/− (sensitization for 5FU, reduction in trypanocidal activity for test compounds), the “fold difference in EC50, PYR6-5 −/− versus wild-type” value is 37.4 fold.
